Source: ChEMBL document CHEMBL1201862, “PubChem BioAssay data set” (2004)
The source made the active and inactive calls.

What was measured:
[1] = growth suppression of PTEN-null colon cells, dose response, cell-based, HCT116 PTEN knockout (AID 1047); assay type: functional;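 further: HCT116 colon tumor cells with PTEN knocked out; cells exposed to compound for 60 hours before readout; potency for loss of cell viability measured by luminescence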
[2] = growth suppression of beta-catenin-knockout colon cells, dose response, cell-based, HCT116, human colon tumor (AID 1045); assay type: functional;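 further: HCT116 colon tumor cells with beta catenin knocked out; cells exposed to compound for 60 hours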
[3] = Luminescence Cell-Based Dose Retest to Confirm Inhibitors of Cancer Stem Cells. [Related pubchem assays (depositor defined):AID2717, AID2721]; assay type: functional; details: Homo sapiens
Insulin-degrading enzyme [4] = biological target: T1, Insulin-degrading enzyme (Homo sapiens, UniProt P14735); assay: activators of recombinant IDE enzyme, dose response, counter-screen for IDE activator project, biochemical, fluorescence polarization (AID 588681)
T1 sequence (P14735 whole entry): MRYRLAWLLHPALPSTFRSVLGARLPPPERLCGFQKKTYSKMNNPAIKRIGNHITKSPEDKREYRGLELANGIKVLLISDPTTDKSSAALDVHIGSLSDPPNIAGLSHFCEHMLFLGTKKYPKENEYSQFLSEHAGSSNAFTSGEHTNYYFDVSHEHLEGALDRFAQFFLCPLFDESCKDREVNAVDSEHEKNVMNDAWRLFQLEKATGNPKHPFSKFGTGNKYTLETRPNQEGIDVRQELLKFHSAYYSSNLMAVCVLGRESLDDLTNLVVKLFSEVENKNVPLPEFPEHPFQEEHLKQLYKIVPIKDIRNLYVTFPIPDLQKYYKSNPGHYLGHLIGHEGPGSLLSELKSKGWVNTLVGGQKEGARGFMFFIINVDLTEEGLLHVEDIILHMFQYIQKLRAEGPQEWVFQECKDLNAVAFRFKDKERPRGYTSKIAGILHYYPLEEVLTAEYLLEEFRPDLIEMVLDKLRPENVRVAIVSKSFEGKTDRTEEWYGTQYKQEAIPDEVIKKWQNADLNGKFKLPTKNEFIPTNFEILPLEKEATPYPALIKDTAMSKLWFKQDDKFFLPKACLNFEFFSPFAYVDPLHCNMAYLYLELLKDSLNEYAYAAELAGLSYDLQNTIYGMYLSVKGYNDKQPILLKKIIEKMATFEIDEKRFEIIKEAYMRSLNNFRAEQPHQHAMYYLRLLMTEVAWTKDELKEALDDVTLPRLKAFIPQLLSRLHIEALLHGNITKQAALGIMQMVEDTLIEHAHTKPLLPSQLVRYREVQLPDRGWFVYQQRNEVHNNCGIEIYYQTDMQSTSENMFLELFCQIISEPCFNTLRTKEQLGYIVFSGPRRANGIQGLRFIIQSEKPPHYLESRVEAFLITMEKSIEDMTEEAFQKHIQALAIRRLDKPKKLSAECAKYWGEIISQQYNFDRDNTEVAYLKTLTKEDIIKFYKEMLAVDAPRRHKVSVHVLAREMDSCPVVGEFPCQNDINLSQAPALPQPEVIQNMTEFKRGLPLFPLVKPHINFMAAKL

Insulin-degrading enzyme [5] = biological target: T1, Insulin-degrading enzyme; assay: activators of endogenous IDE in HEK cells, dose response, cell-based, fluorescence polarization (AID 588439); assay type: functional
INS1 = assay: beta cell apoptosis inhibitors, cytokine rescue, dose response, luminescence, retest (AID 449756); assay type: functional, cell-based; details: Rattus norvegicus;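 further: cell death triggered by IL-1 beta plus TNF-alpha plus IFN-gamma mixture; protective hits raise ATP signal compared with cytokine alone wells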
HEK293 [6] = assay: HEK cell cytotoxicity by LDH release, dose response, cytotoxicity control for IDE activator project, fluorescence, HEK cells (AID 588440); assay type: functional, cell-based; details: Homo sapiens;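 further: cytotoxicity by LDH release measuring loss of membrane integrity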
HEK293 [7] = assay: optical interference in Abeta FP readout, dose response, artefact control for IDE activator project, biochemical, fluorescence polarization (AID 588442); assay type: functional, cell-based; details: Homo sapiens
[8] = Shn3 3'UTR reporter inhibitors, dose response, cell-based, Clone20 osteoblasts, firefly luciferase, cherry-picked (AID 624132); assay type: functional;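 further: firefly luciferase luminescence from reporter carrying the Shn3 3'UTR in osteoblasts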
[9] = HepG2 cell cytotoxicity, dose response, cytotoxicity control for Shn3 inhibitor project, CellTiter-Glo, cherry-picked (AID 624134); assay type: functional, cell-based
[10] = control 3'UTR Renilla luciferase suppression, dose response, counter-screen for Shn3 inhibitor project, cell-based, Clone20-Shn3RL, cherry-picked (AID 624133); assay type: functional
Cytochrome P450 1A2 = biological target: T2, Cytochrome P450 1A2 (Homo sapiens, UniProt P05177);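 further: PubChem cytochrome P450 panel assay, CYP1A2 panel member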
T2 sequence (P05177 whole entry): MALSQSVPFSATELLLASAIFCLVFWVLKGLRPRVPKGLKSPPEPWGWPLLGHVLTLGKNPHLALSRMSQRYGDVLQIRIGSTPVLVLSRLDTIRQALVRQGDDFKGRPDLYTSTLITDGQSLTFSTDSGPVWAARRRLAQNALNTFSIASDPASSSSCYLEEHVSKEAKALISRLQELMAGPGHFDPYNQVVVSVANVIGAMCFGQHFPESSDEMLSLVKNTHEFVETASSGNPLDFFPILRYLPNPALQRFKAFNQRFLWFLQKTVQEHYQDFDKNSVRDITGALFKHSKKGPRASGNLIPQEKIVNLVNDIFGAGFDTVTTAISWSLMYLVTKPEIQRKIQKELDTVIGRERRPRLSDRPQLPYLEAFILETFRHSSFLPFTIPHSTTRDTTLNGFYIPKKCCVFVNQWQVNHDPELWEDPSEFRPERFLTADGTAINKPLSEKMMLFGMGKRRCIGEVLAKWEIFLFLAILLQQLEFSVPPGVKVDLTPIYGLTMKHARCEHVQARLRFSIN

HEK293 [11] = assay: inhibitors of LMP1-driven NF-kB reporter, dose response, cell-based, HEK293, luciferase, cherry-pick (AID 588343); assay type: functional; details: Homo sapiens
[12] = biological target: Latent membrane protein 1 (Human herpesvirus 4 (strain B95-8), UniProt P03230); assay: TES1-eGFP NF-kB reporter inhibition versus Tet-On dsRED, dose response, selectivity assay for LMP1 NF-kB inhibitor project, imaging, HEK293T, dual-color eGFP/dsRED, cherry-picks (AID 588398); assay type: functional, cell-based
[13] = biological target: T3, RNA-binding protein pos-1 (Caenorhabditis elegans, UniProt G5EF15); assay: inhibitors of POS-1/mex-3 RNA binding, dose response, biochemical, fluorescence polarization (AID 1964);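 further: purified POS-1 fused to maltose binding protein made in E. coli; potency of compounds blocking POS-1 binding to fluorescent RNA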
T3 sequence (G5EF15 whole entry): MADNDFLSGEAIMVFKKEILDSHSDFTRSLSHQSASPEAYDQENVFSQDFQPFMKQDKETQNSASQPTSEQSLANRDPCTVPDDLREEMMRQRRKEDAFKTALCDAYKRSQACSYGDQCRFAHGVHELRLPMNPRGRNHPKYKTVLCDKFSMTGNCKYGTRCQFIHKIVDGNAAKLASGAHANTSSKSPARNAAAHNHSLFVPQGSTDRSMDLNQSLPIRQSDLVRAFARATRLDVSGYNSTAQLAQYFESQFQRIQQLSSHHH

[14] = biological target: T4, Zinc finger protein mex-5 (Caenorhabditis elegans, UniProt Q9XUB2); assay: MEX-5/TCR-2 RNA interaction inhibitors, dose response, biochemical, C. elegans, fluorescence polarization (AID 1960)
T4 sequence (Q9XUB2 whole entry): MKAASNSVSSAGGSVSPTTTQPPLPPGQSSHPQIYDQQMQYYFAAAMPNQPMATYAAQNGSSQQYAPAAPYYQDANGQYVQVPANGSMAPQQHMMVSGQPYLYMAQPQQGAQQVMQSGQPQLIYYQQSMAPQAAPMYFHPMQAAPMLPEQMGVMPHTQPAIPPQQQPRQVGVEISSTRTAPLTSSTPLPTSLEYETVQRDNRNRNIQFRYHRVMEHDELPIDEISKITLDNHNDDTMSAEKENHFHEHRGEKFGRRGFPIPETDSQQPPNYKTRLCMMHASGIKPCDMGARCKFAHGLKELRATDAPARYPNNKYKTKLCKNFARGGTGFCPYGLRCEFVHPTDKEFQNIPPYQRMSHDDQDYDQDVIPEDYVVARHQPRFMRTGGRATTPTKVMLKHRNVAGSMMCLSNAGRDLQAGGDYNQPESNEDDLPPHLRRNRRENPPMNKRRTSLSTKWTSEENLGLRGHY

[15] = inhibitors of intracellular T. cruzi replication, confirmation, NIH3T3 host cells, beta-gal luminescence (AID 2044); assay type: functional, cell-based;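 further: intracellular parasites grown in NIH/3T3 mouse fibroblasts as host cells; luminescent beta-galactosidase reporter signal from transgenic T. cruzi replicating inside host cells; inhibitors lower the luminescence signal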
[16] = cytotoxicity toward NIH3T3 fibroblasts, dose response, counter-screen, cell-based, ATP luminescence, mouse fibroblasts (AID 2010); assay type: functional;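 further: cells exposed to compound for about 90 hours before reading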
[17] = cytotoxicity in HEK-293T cells, dose response, cytotoxicity control for BCR NF-kB inhibitor project, luminescence, B-cell screen hits (AID 489021); assay type: functional, cell-based;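 further: HEK-293T cells carrying an NF-kB luciferase reporter; cells exposed to compound for about 14 hours before viability readout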
Protein skinhead-1 = biological target: T5, Protein skinhead-1 (Caenorhabditis elegans, UniProt P34707); assay type: functional
T5 sequence (P34707 whole entry): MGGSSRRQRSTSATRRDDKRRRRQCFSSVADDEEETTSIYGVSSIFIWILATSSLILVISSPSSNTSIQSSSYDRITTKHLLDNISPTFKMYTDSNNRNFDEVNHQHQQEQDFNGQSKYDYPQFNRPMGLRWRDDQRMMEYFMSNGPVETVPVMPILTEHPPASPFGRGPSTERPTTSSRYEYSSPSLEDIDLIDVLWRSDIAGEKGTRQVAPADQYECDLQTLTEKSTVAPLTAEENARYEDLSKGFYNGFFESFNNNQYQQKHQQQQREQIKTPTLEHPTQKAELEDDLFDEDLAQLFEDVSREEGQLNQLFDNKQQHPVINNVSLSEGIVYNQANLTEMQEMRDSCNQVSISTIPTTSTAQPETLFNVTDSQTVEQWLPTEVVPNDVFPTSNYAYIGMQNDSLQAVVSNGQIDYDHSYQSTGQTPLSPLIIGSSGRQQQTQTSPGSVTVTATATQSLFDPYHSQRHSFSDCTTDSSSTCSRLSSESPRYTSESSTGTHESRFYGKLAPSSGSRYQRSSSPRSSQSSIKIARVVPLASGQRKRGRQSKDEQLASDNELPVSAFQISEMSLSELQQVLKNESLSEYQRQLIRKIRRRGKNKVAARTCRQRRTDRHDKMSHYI

Latent membrane protein 1, sequence (P03230 whole entry, the tested form may be a part): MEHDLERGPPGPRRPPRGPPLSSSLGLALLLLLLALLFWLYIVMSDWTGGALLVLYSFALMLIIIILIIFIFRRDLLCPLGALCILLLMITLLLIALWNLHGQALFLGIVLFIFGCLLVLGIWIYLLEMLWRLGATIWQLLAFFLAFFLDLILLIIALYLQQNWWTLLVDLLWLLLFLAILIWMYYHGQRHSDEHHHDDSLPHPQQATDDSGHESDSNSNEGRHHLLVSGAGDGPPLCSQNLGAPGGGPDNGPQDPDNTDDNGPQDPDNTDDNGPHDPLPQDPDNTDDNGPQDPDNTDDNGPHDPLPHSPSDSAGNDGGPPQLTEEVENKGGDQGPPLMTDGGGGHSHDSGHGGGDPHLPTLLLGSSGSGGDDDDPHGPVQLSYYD

With `COc1ccc(Cn2c(SCc3ccccc3C)nc3cc(OC)c(OC)cc3c2=N)cc1` the EC50 [1] was 4.85 µM (active), the EC50 [2] was 3.81 µM (active) and the AC50 [3] was 2.71 µM (active). The EC50 (Insulin-degrading enzyme [4]) was > 54.7 µM (inactive), the EC50 (Insulin-degrading enzyme [5]) was 9.39 µM (active) and the AC50 (INS1) was 4.3 µM (active). The IC50 (HEK293 [6]) was 18.5 µM (inactive), the EC50 (HEK293 [7]) was > 54.7 µM (inactive) and the AC50 [8] was 5.46 µM (active). For the same compound, the AC50 [9] was 12.8 µM (active), the AC50 [10] was 16 µM (active) and the AC50 (Cytochrome P450 1A2) was 15.8 µM (inconclusive).
For `CC(C)(O)C#Cc1ccc([C@@H]2C[C@H]3CN(c4ccccc4)C(=O)[C@]34CCCN24)s1`, the AC50 (HEK293 [11]) was 11.9 µM (active), the AC50 [12] was 5.64 µM (active) and the AC50 [8] was 4.93 µM (active). The AC50 [9] was > 70 µM (inactive) and the AC50 [10] was > 70 µM (inactive).
With `CCc1ccc(/C=C2\SC(=S)N(CCCC(=O)Nc3ccccn3)C2=O)cc1` the EC50 [13] was 27.1 µM (active), the EC50 [14] was 24.6 µM (active) and the EC50 [15] was 1.83 µM (active). For the same compound, the EC50 [16] was 54.8 µM (active), the IC50 [17] was > 80 µM (inactive) and the AC50 (HEK293 [11]) was 4.92 µM (active). The AC50 [12] was 16.2 µM (active) and the IC50 (Protein skinhead-1) was > 100 µM (inactive).
